We go through 1 substance from patent publication US20120208182A1, “GENETIC TEST FOR LIVER COPPER ACCUMULATION IN DOGS AND LOW COPPER PET DIET” (priority 2009, published 2012).

The nature of data set [1]: Diet trial: blood examinations (bile acids, ALP, ALT, plasma zinc). In kind it is in vivo, dog. The procedure:
(§1) All dogs were fed the same diet. […] The pharmacist was the only person aware of group allocations until completion of the study. Hepatic copper concentrations and histopathology were assessed along with clinical examinations and blood-work before and after treatment for a mean of 8 months (range 5-13), and 16 months (range 12-25). Plasma zinc concentrations were measured at additional time points during treatment.
All dogs had completed their treatment with penicillamine prior to the start of this study. A medical history was obtained from all dogs and a physical examination was performed. Na-citrated blood samples were taken for analysis of a coagulation profile, including prothrombin time (PT), activated partial thromboplastin time (aPTT) and fibrinogen. Heparin- and EDTA-blood was sampled for analysis of the hepatobiliary enzymes alkaline phosphatase (ALP), alanine aminotransferase (ALT), of bile acids (BA), and for measurement of the platelet count, and plasma zinc concentrations. Liver biopsies were taken according to the Menghini technique given by Rothuizen (Rothuizen J, I. T. (1998) Tijdschr Diergeneeskd 123: 246-252). At least three liver biopsies were taken from each dog. Two biopsies were fixed in 10 percent neutral buffered formalin, and one biopsy was stored in a copper-free container for quantitative copper determination.

A short description of data set [2]: Pharmacokinetic study of oral zinc gluconate, plasma zinc by atomic absorption spectrometry. Type of data set: in vivo, Labrador Retrievers. As to conditions: for V_F: volume of distribution: food withheld 12 h before dosing. The method, then: Two unrelated nine-year old, healthy Labrador Retrievers (1 female and 1 male) were used in a pharmacokinetic study. Food was withheld for a 12-hour period prior to oral administration of zinc, and during the initial 6-hour testing period. Water was freely available. […] Heparinized blood samples (4 ml) were collected from the jugular vein before dosing (time 0) and 15, 30, 45, 60, 90, 120 minutes, and 4, 8, 12 and 24 hours after application of the drug. Plasma was stored at
−20° C. until analysis for zinc using atomic absorption spectrometry. […]

The subject of data set [3] is Labrador Retrievers. Nature of the data set: Diet trial: observed adverse effects. In kind it is in vivo, dog. The conditions noted are these: in 3 dogs of group 1; immediately after the tablets, resolved when tablets were mixed with the diet. The method, then:
as §1
Owners were instructed to give the tablets mixed with small amounts of their diet 30 minutes before feeding. Neither the owner nor the clinician was informed about which treatment each dog received.

In data set [4] the test system is Labrador Retrievers. Nature of the data set: Hepatic copper before penicillamine, after penicillamine and after diet (Example 5, FIG. 3). The conditions noted are these: all dogs on diet, data not shown. Type of data set: in vivo, dog. The method, then: FIG. 3 illustrates the effectiveness of the diet of the invention on hepatic copper concentrations (mg/kg dry weight) in 18 Labrador Retrievers compared with the effect of penicillamine alone. The key to the x-axis is as follows: 1=pre-penicillamine, 2=post-penicillamine/pre-food, 3=post-food. […] The dotted line represents the normal level of hepatic copper for adult dogs.
During an investigation of the effect of zinc on hepatic copper concentration, hepatic copper concentration was measured in 18 pure-bred Labrador Retrievers. Half of the dogs were provided with a supplement of zinc and the other half were provided with a placebo. All of the dogs were fed the diet of Example 2. Hepatic copper concentration was measured using the method of Example 2 at 3 time points: (1) before treatment with penicillamine; (2) after treatment with penicillamine but before treatment with the diet of Example 2; and (3) after the diet treatment.

Data set [5] deals with Labrador Retrievers. Nature of the data set: Diet trial with randomized, placebo-controlled zinc application: quantitative hepatic copper by neutron activation analysis. Type of data set: in vivo, dog. As to conditions: 7.5 mg/kg PO BID versus placebo, all dogs on diet. The method, then:
as §1
All dogs had completed their treatment with penicillamine prior to the start of this study. A medical history was obtained from all dogs and a physical examination was performed. […] Two biopsies were fixed in 10 percent neutral buffered formalin, and one biopsy was stored in a copper-free container for quantitative copper determination.
A quantitative assay for copper in liver tissue was performed by neutron activation analysis, according to a protocol described by Teske et al, using the facilities described by Bode (Bode, P. (1990) Journal of Trace and Microprobe Techniques 8: 139; Teske et al. (1992) Vet Rec 131: 30-32). Quantitative copper concentrations were measured in lyophilised liver biopsies and reported in mg/kg dry weight liver.
All dog owners were provided with the same specially manufactured diet. […] Metabolizable energy (measured according to Association of American Feed Control Officials protocol): 1650 kcal/kg as fed). […]

Consider zinc gluconate, for which the “plasma zinc concentration, group 1 versus group 2” value in data set [1] (at any of the three examinations (start, recheck-1, recheck-2)) is recorded as “No difference”. Also, the “mean plasma zinc concentration” value in data set [1] (group 1, after the initial month of treatment, sampled 2-6 hours after zinc application, start 95) was determined as 165 µg/dL. In data set [2] (Dog 1, 10 mg/kg oral), the “AUC: area under the curve” value was 63350 ng·h/mL, the “K01: absorption rate constant” value was 0.5672 h⁻¹, the “K10: elimination rate constant” value turned out to be 0.05373 h⁻¹ and the “Tmax: time of maximum concentration” value stood at 4.59 h. Further, in data set [2] (Dog 1, 10 mg/kg oral), the “V_F: volume of distribution” value is listed as 2937.872 ml/kg bodyweight. In data set [2] (Dog 2, 5 mg/kg oral), the “AUC: area under the curve” value was 51990 ng·h/mL, the “K01: absorption rate constant” value stood at 1.161 h⁻¹, the “K10: elimination rate constant” value turned out to be 0.03789 h⁻¹ and the “Tmax: time of maximum concentration” value is 3.048 h. In data set [2] (Dog 2, 5 mg/kg oral), the “V_F: volume of distribution” value is recorded as 2538.689 ml/kg bodyweight. For the same substance, in data set [2] (R=1/(1−exp(−k10*24))), the “calculated accumulation rate R” value was 1.52. The “apparent oral clearance (CL/F), mean of both dogs” value in data set [2] (mean of dog 1 and dog 2) stood at 2.116898 mL/min/kg. Besides, the adverse effects entry in data set [3] is “Vomiting, anorexia, and diarrhea”. For the same substance, in data set [4], the “copper levels in dogs treated with zinc versus placebo” value is reported as “no significant difference”. For the same substance, the “effect of adjunctive zinc on hepatic copper decrease by diet” value in data set [5] is listed as “did not amplify the de-coppering effect”.
